Test results reported in patent US8088410B2, “25-hydroxy Vitamin D3 compositions” (DSM IP Assets B.V., priority 2002, dated 2012).

Assay: Premix stability: percent retention of 25-hydroxy Vitamin D3 in stored feed premixes (Example 7)
Format: physicochemical
Settings: Basic and Vitamin Premixes, stored at 25° C. and 35° C. up to 3 months (FIGS. 6 and 7)
Experimental: Three premixes for use in animal feed were prepared having the following components in the following proportions by percent weight based on the total weight of the premix.
Each of these premix compositions was prepared using a microencapsulated oil of the present invention or a prior art beadlet containing 25-hydroxy Vitamin D3. In addition, a control formulation was prepared, in which Vitamin D3 was substituted for the 25-hydroxy Vitamin D3. Each of the premixes was stored at 25° C. and 35° C., for a length of time up to 3 months. The percent retention of the 25-hydroxy Vitamin D3 was determined at each time and temperature.

For `C=C1CCC(O)C/C1=C/C=C1\CCCC2(C)C1CCC2C(C)CCCC(C)(C)O` (stereo not shown) [25-hydroxy Vitamin D3], the “stability of 25-hydroxy Vitamin D3 (% retention) in premix” value was “less than that of Vitamin D3”.
